The record followed here is ChEMBL document CHEMBL5360532, “Current scenario of quinolone hybrids with potential antibacterial activity against ESKAPE pathogens” (Eur J Med Chem, 2023).

Converted amounts (≈) assume the structure as drawn.

Holding throughout (assay type): functional
One assay has as its system Enterobacter cloacae. The experiment in a line: Antibacterial activity against Enterobacter cloacae PTCC 1003 assessed as bacterial growth inhibition by agar dilution method.
The next assay deals with Bacillus subtilis. The experiment in a line: Antibacterial activity against Bacillus subtilis PTCC 1023 assessed as bacterial growth inhibition by agar dilution method. A general note: In agar dilution, organisms are placed on agar that contains the substance at set levels.
Assay [1] relates to Staphylococcus aureus. The experiment in a line: Antibacterial activity against Staphylococcus aureus ATCC 6538p assessed as bacterial growth inhibition by agar dilution method.
The subject of assay [2] is Klebsiella pneumoniae. The experiment in a line: Antibacterial activity against Klebsiella pneumoniae ATCC 10031 assessed as bacterial growth inhibition by agar dilution method.
For assay [3], the system named is Staphylococcus epidermidis. The experiment in a line: Antibacterial activity against Staphylococcus epidermidis ATCC 12228 assessed as bacterial growth inhibition by agar dilution method.
For assay [4], the system named is Escherichia coli. The experiment in a line: Antibacterial activity against Escherichia coli ATCC 8739 assessed as bacterial growth inhibition by agar dilution method.
For assay [5], the system named is Staphylococcus aureus. The experiment in a line: Antibacterial activity against Staphylococcus aureus clinical isolate assessed as zone of inhibition at 50 mg/ml by agar diffusion assay. The following applies: read-out: IZ. On the technique in general: Agar diffusion results depend on both activity and mobility in agar.
For assay [6], the system named is Escherichia coli. As to the kind of experiment: Antibacterial activity against Escherichia coli ATCC 25922 assessed as zone of inhibition at 50 mg/ml by agar diffusion assay. To be noted: read-out: IZ.
The subject of assay [7] is Escherichia coli. The experiment in a line: Antibacterial activity against Escherichia coli clinical isolate assessed as zone of inhibition at 50 mg/ml by agar diffusion assay. The following applies: read-out: IZ.
Assay [8] relates to Staphylococcus aureus. The experiment in a line: Antibacterial activity against Staphylococcus aureus ATCC 25923 assessed as zone of inhibition at 50 mg/ml by agar diffusion assay. To be noted: read-out: IZ.
Assay [9] relates to Escherichia coli. The experiment in a line: Antibacterial activity against Escherichia coli ATCC 25922 assessed as bacterial growth inhibition measured after 24 hrs by agar disc diffusion assay.
The subject of assay [10] is Pseudomonas aeruginosa. The experiment in a line: Antibacterial activity against Pseudomonas aeruginosa ATCC 27853 assessed as bacterial growth inhibition measured after 24 hrs by agar disc diffusion assay.
In assay [11] the test system is Staphylococcus aureus. As to the kind of experiment: Antibacterial activity against Staphylococcus aureus ATCC 29213 assessed as bacterial growth inhibition measured after 24 hrs by agar disc diffusion assay.
The test system of the next assay is SiHa. As to the kind of experiment: Growth inhibition of human SiHa cells measured after 48 hrs by SRB assay.
Another assay relates to MDA-MB-231. The experiment in a line: Growth inhibition of human MDA-MB-231 cells measured after 48 hrs by SRB assay.
For assay [12], the system named is Escherichia coli. The experiment in a line: Potency index, ratio of ciprofloxacin MIC to test compound MIC for antimicrobial activity against Escherichia coli assessed as bacterial growth inhibition by agar cup diffusion assay.
The subject of assay [13] is Staphylococcus aureus. As to the kind of experiment: Antibacterial activity against Staphylococcus aureus ATCC 25923 assessed as bacterial growth inhibition measured after 18 to 24 hrs by two fold microdilution assay. To be noted: time 18-24 hrs. On the technique in general: Dilution methods test growth across graded concentrations, often in twofold steps.
For assay [14], the system named is Klebsiella pneumoniae. As to the kind of experiment: Antibacterial activity against Klebsiella pneumoniae assessed as bacterial growth inhibition measured after 18 to 24 hrs by two fold microdilution assay. The following applies: time 18-24 hrs.
Assay [15] relates to Escherichia coli. As to the kind of experiment: Antibacterial activity against Escherichia coli ATCC 35218 assessed as bacterial growth inhibition measured after 18 to 24 hrs by two fold microdilution assay. The following applies: ATCC35218, time 18-24 hrs.
In assay [16] the test system is Escherichia coli. As to the kind of experiment: Antibacterial activity against Escherichia coli ATCC 8739 assessed as bacterial growth inhibition measured after 18 to 24 hrs by two fold microdilution assay. To be noted: time 18-24 hrs.
In assay [17] the test system is Klebsiella pneumoniae. The experiment in a line: Antibacterial activity against Klebsiella pneumoniae ATCC 13883 assessed as bacterial growth inhibition measured after 18 to 24 hrs by two fold microdilution assay. The following applies: time 18-24 hrs.
Assay [18] concerns Klebsiella pneumoniae. The experiment in a line: Antibacterial activity against Klebsiella pneumoniae assessed as bacterial growth inhibition measured after 20 hrs by serial dilution method.
The test system of assay [19] is Escherichia coli. The experiment in a line: Antibacterial activity against Escherichia coli assessed as bacterial growth inhibition measured after 20 hrs by serial dilution method.
Assay [20] relates to Staphylococcus aureus. The experiment in a line: Antibacterial activity against Staphylococcus aureus assessed as bacterial growth inhibition measured after 20 hrs by serial dilution method.
Assay [21] relates to Pseudomonas aeruginosa. As to the kind of experiment: Antibacterial activity against Pseudomonas aeruginosa assessed as bacterial growth inhibition measured after 20 hrs by serial dilution method.
Assay [22] deals with Staphylococcus aureus. As to the kind of experiment: Antibacterial activity against Staphylococcus aureus assessed as bacterial growth inhibition by agar dilution assay.
The subject of assay [23] is Pseudomonas aeruginosa. As to the kind of experiment: Antibacterial activity against Pseudomonas aeruginosa ATCC 27853 assessed as bacterial growth inhibition by agar dilution assay.
Assay [24] concerns Klebsiella pneumoniae. As to the kind of experiment: Antibacterial activity against Klebsiella pneumoniae assessed as bacterial growth inhibition by agar dilution assay.
The test system of assay [25] is Staphylococcus aureus. The experiment in a line: Antibacterial activity against methicillin resistant Staphylococcus aureus assessed as bacterial growth inhibition by agar dilution assay.
Assay [26] has as its system Staphylococcus aureus. As to the kind of experiment: Antibacterial activity against Staphylococcus aureus ATCC 25923 assessed as bacterial growth inhibition by agar dilution assay.
Assay [27] deals with Staphylococcus aureus. As to the kind of experiment: Antibacterial activity against Staphylococcus aureus ATCC 29213 assessed as bacterial growth inhibition by agar dilution assay.
A further assay deals with Acinetobacter baumannii. The experiment in a line: Antibacterial activity against Acinetobacter baumannii assessed as bacterial growth inhibition by agar dilution assay.
Assay [28] deals with Escherichia coli. The experiment in a line: Antibacterial activity against Escherichia coli ATCC 25922 assessed as bacterial growth inhibition by agar dilution assay.

Turning to `CCOC(=O)C(C(=O)OCC)C(=O)c1cn(C2CC2)c2cc(N3CCN(/N=N/c4nc(OC)cc(OC)n4)CC3)c(F)cc2c1=O`, the MIC (with Enterobacter cloacae; with Bacillus subtilis; in the assay with Staphylococcus aureus [1]; with Klebsiella pneumoniae [2]; in assay [3]; in the assay with Escherichia coli [4]) was 0.015 µg/mL (≈ 0.0235 µM) throughout.

For `COC(=O)c1cn(C2CC2)c2cc(N3CCN(C(=O)c4nnn(-c5ccc(OC)cc5)c4N)CC3)c(F)cc2c1=O`, the zone of inhibition at 50000 µg/mL in the assay on Staphylococcus aureus [5], with Escherichia coli [6], in the assay with Escherichia coli [7] and in the assay on Staphylococcus aureus [8] was 26.3 mm throughout.

`COC(=O)[C@H](C)NC(=O)c1cc(=O)n(Cc2cn(C3O[C@H]4OC(C)(C)O[C@H]4[C@@H]4OC(C)(C)OC[C@@H]34)nn2)c2ccccc12` (stereo partly drawn): the MIC in the assay with Escherichia coli [9], with Pseudomonas aeruginosa [10] and in the assay on Staphylococcus aureus [11] was 9.75 µg/mL (≈ 16.3 µM) throughout.

Turning to `COC(=O)[C@H](C)NC(=O)c1cc(=O)n(Cc2cn([C@@H](NC(=O)c3ccccc3)C(=O)OC)nn2)c2ccccc12`, the minimal inhibitory concentration (MIC) in the assay on Escherichia coli [9], with Pseudomonas aeruginosa [10] and in the assay on Staphylococcus aureus [11] was 19 µg/mL (≈ 34.8 µM) throughout.

In the case of `O=C(O)c1cn(C2CC2)c2cc(N3CCN(C(=O)CCSc4nnnn4Cc4ccccc4)CC3)c(F)cc2c1=O`, the GI50 – broadly, the concentration giving 50% growth inhibition – stood at 70 nM in the assay with SiHa and 80 nM with MDA-MB-231. Moreover, the Ratio in the assay on Escherichia coli [12] stood at 2.

In the case of `O=C(O)c1cn(C2CC2)c2cc(N3CCN(Cn4nc(CN5CCN(c6ccc(F)cc6)CC5)n(-c5ccccc5)c4=O)CC3)c(F)cc2c1=O`, the minimal inhibitory concentration (MIC) with Staphylococcus aureus [13], in the assay with Klebsiella pneumoniae [14] and with Escherichia coli [15] was under 0.24 µg/mL throughout.

Take `O=C(O)c1cn(C2CC2)c2cc(N3CCN(Cn4nc(CN5CCN(c6ccccc6)CC5)n(-c5ccccc5)c4=S)CC3)c(F)cc2c1=O`: the MIC in the assay on Escherichia coli [16] and in the assay on Klebsiella pneumoniae [17] was 0.125 µg/mL (≈ 0.18 µM) throughout.

`Cc1cccc2cc(/C=C3\NC(=S)NC3=O)c(=O)[nH]c12`: the minimum inhibitory concentration (MIC) in the assay with Klebsiella pneumoniae [18], in the assay with Escherichia coli [19], in the assay with Staphylococcus aureus [20] and in the assay on Pseudomonas aeruginosa [21] was 0.24 µg/mL (≈ 0.841 µM) throughout.

As to `CCOC(=O)c1cn(Cc2nc3ccccc3n2Cc2ccc(Cl)cc2Cl)c2cc(Cl)c(F)cc2c1=O`, the MIC (usually the smallest concentration in the dilution series that meets the test's criterion for growth inhibition) stood at 4 µg/mL (≈ 7.16 µM) in the assay on Staphylococcus aureus [22]; 4 µg/mL (≈ 7.16 µM) in the assay on Pseudomonas aeruginosa [23]; 1 µg/mL (≈ 1.79 µM) in the assay with Klebsiella pneumoniae [24]; 4 µg/mL (≈ 7.16 µM) in the assay on Staphylococcus aureus [25]; 1 µg/mL (≈ 1.79 µM) in the assay with Staphylococcus aureus [26]; 1 µg/mL (≈ 1.79 µM) with Staphylococcus aureus [27]. For the same compound, the minimum inhibitory concentration (MIC) in the assay with Acinetobacter baumannii is 4 µg/mL (≈ 7.16 µM); in the assay on Escherichia coli [28], 1 µg/mL (≈ 1.79 µM).

As to `CCn1c(CN2CCN(c3ccccc3)CC2)nn(CN2CCN(c3cc4c(cc3F)c(=O)c(C(=O)O)cn4C3CC3)CC2)c1=S`, the MIC in the assay with Escherichia coli [16] and in the assay with Klebsiella pneumoniae [17] was 0.125 µg/mL (≈ 0.193 µM) in each case.
